{"source": "the supplement of paper PMC10307832", "experiment_in_all_cases": "relative viability (nuclei count vs DMSO), 5 days (fraction); higher = more cells survive", "key": {"NCI-H460": {"system": "NCI-H460", "how_it_was_run": "(§1)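 Lung cancer cell lines in 1536-well plates were dosed by pin tool the day after seeding, either with one drug alone or with a fixed anchor-drug dose plus five library-drug doses (not always all listed) in √10 steps. After 5 days, cells were fixed and their nuclei stained in one step (final 0.05% Triton X-100, 1% formaldehyde, 1 ug/ml Hoechst), then counted on 4× images. Relative viability is the nuclei count in treated wells divided by that in vehicle wells. Values are medians of duplicate plates.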"}, "NCI-H1650": {"system": "NCI-H1650", "how_it_was_run": "as §1"}, "NCI-H2087": {"system": "NCI-H2087", "how_it_was_run": "as §1"}, "NCI-H596": {"system": "NCI-H596", "how_it_was_run": "as §1"}, "PC-3 [JPC-3]": {"system": "PC-3 [JPC-3]", "how_it_was_run": "as §1"}, "NCI-H1915": {"system": "NCI-H1915", "how_it_was_run": "as §1"}, "NCI-H1944": {"system": "NCI-H1944", "how_it_was_run": "as §1"}, "NCI-H1792": {"system": "NCI-H1792", "how_it_was_run": "as §1"}, "CAL-12T": {"system": "CAL-12T", "how_it_was_run": "as §1"}, "NCI-H2023": {"system": "NCI-H2023", "how_it_was_run": "as §1"}, "ABC-1": {"system": "ABC-1", "how_it_was_run": "as §1"}, "201T": {"system": "201T", "how_it_was_run": "as §1"}, "NCI-H520": {"system": "NCI-H520", "how_it_was_run": "as §1"}, "LCLC-97TM1": {"system": "LCLC-97TM1", "how_it_was_run": "as §1"}, "A-427": {"system": "A-427", "how_it_was_run": "as §1"}, "NCI-H441": {"system": "NCI-H441", "how_it_was_run": "as §1"}, "NCI-H661": {"system": "NCI-H661", "how_it_was_run": "as §1"}, "LC-2-ad": {"system": "LC-2-ad", "how_it_was_run": "as §1"}, "NCI-H650": {"system": "NCI-H650", "how_it_was_run": "as §1"}, "H3255": {"system": "H3255", "how_it_was_run": "as §1"}, "NCI-H1651": {"system": "NCI-H1651", "how_it_was_run": "as §1"}, "NCI-H727": {"system": "NCI-H727", "how_it_was_run": "as §1"}, "BEN": {"system": "BEN", "how_it_was_run": "as §1"}}, "data": [{"smiles": "Oc1nc(-c2ccc(C(F)(F)F)cc2)nc2c1CSCC2", "note": "[XAV939] + COc1cccc2cc(-c3nc([C@H]4CC[C@H](C(=O)O)CC4)n4ncnc(N)c34)[nH]c12 [OSI-027] (partner 0.5 µM)", "values": [{"measurement": "relative viability", "setting": "NCI-H460; first compound 0.08 µM", "value": 0.904}, {"measurement": "relative viability", "setting": "NCI-H460; first compound 0.253 µM", "value": 0.555}, {"measurement": "relative viability", "setting": "NCI-H460; first compound 0.8 µM", "value": 0.745}, {"measurement": "relative viability", "setting": "NCI-H460; first compound 2.53 µM", "value": 0.631}, {"measurement": "relative viability", "setting": "NCI-H1650; first compound 0.08 µM", "value": 0.817}, {"measurement": "relative viability", "setting": "NCI-H1650; first compound 0.253 µM", "value": 0.6}, {"measurement": "relative viability", "setting": "NCI-H1650; first compound 0.8 µM", "value": 0.742}, {"measurement": "relative viability", "setting": "NCI-H1650; first compound 2.53 µM", "value": 0.443}, {"measurement": "relative viability", "setting": "NCI-H2087; first compound 0.08 µM", "value": 0.833}, {"measurement": "relative viability", "setting": "NCI-H2087; first compound 0.253 µM", "value": 0.504}, {"measurement": "relative viability", "setting": "NCI-H2087; first compound 0.8 µM", "value": 0.444}, {"measurement": "relative viability", "setting": "NCI-H2087; first compound 2.53 µM", "value": 0.46}, {"measurement": "relative viability", "setting": "NCI-H596; first compound 0.08 µM", "value": 0.803}, {"measurement": "relative viability", "setting": "NCI-H596; first compound 0.253 µM", "value": 0.796}, {"measurement": "relative viability", "setting": "NCI-H596; first compound 0.8 µM", "value": 0.768}, {"measurement": "relative viability", "setting": "NCI-H596; first compound 2.53 µM", "value": 0.622}, {"measurement": "relative viability", "setting": "PC-3 [JPC-3]; first compound 0.08 µM", "value": 0.756}, {"measurement": "relative viability", "setting": "PC-3 [JPC-3]; first compound 0.253 µM", "value": 0.611}, {"measurement": "relative viability", "setting": "PC-3 [JPC-3]; first compound 0.8 µM", "value": 0.777}, {"measurement": "relative viability", "setting": "PC-3 [JPC-3]; first compound 2.53 µM", "value": 0.599}, {"measurement": "relative viability", "setting": "NCI-H1915; first compound 0.08 µM", "value": 0.707}, {"measurement": "relative viability", "setting": "NCI-H1915; first compound 0.253 µM", "value": 0.321}, {"measurement": "relative viability", "setting": "NCI-H1915; first compound 0.8 µM", "value": 0.597}, {"measurement": "relative viability", "setting": "NCI-H1915; first compound 2.53 µM", "value": 0.589}, {"measurement": "relative viability", "setting": "NCI-H1944; first compound 0.08 µM", "value": 0.441}, {"measurement": "relative viability", "setting": "NCI-H1944; first compound 0.253 µM", "value": 0.393}, {"measurement": "relative viability", "setting": "NCI-H1944; first compound 0.8 µM", "value": 0.403}, {"measurement": "relative viability", "setting": "NCI-H1944; first compound 2.53 µM", "value": 0.367}, {"measurement": "relative viability", "setting": "NCI-H1792; first compound 0.08 µM", "value": 0.82}, {"measurement": "relative viability", "setting": "NCI-H1792; first compound 0.253 µM", "value": 0.677}, {"measurement": "relative viability", "setting": "NCI-H1792; first compound 0.8 µM", "value": 0.839}, {"measurement": "relative viability", "setting": "NCI-H1792; first compound 2.53 µM", "value": 0.672}, {"measurement": "relative viability", "setting": "CAL-12T; first compound 0.08 µM", "value": 0.635}, {"measurement": "relative viability", "setting": "CAL-12T; first compound 0.253 µM", "value": 0.363}, {"measurement": "relative viability", "setting": "CAL-12T; first compound 0.8 µM", "value": 0.441}, {"measurement": "relative viability", "setting": "CAL-12T; first compound 2.53 µM", "value": 0.335}, {"measurement": "relative viability", "setting": "NCI-H2023; first compound 0.08 µM", "value": 0.368}, {"measurement": "relative viability", "setting": "NCI-H2023; first compound 0.253 µM", "value": 0.288}, {"measurement": "relative viability", "setting": "NCI-H2023; first compound 0.8 µM", "value": 0.321}, {"measurement": "relative viability", "setting": "NCI-H2023; first compound 2.53 µM", "value": 0.251}, {"measurement": "relative viability", "setting": "ABC-1; first compound 0.08 µM", "value": 0.44}, {"measurement": "relative viability", "setting": "ABC-1; first compound 0.253 µM", "value": 0.532}, {"measurement": "relative viability", "setting": "ABC-1; first compound 0.8 µM", "value": 0.374}, {"measurement": "relative viability", "setting": "ABC-1; first compound 2.53 µM", "value": 0.28}, {"measurement": "relative viability", "setting": "201T; first compound 0.08 µM", "value": 0.61}, {"measurement": "relative viability", "setting": "201T; first compound 0.253 µM", "value": 0.487}, {"measurement": "relative viability", "setting": "201T; first compound 0.8 µM", "value": 0.575}, {"measurement": "relative viability", "setting": "201T; first compound 2.53 µM", "value": 0.622}, {"measurement": "relative viability", "setting": "NCI-H520; first compound 0.08 µM", "value": 0.262}, {"measurement": "relative viability", "setting": "NCI-H520; first compound 0.253 µM", "value": 0.225}, {"measurement": "relative viability", "setting": "NCI-H520; first compound 0.8 µM", "value": 0.224}, {"measurement": "relative viability", "setting": "NCI-H520; first compound 2.53 µM", "value": 0.225}, {"measurement": "relative viability", "setting": "LCLC-97TM1; first compound 0.08 µM", "value": 0.643}, {"measurement": "relative viability", "setting": "LCLC-97TM1; first compound 0.253 µM", "value": 0.566}, {"measurement": "relative viability", "setting": "LCLC-97TM1; first compound 0.8 µM", "value": 0.545}, {"measurement": "relative viability", "setting": "LCLC-97TM1; first compound 2.53 µM", "value": 0.609}, {"measurement": "relative viability", "setting": "A-427; first compound 0.08 µM", "value": 0.49}, {"measurement": "relative viability", "setting": "A-427; first compound 0.253 µM", "value": 0.427}, {"measurement": "relative viability", "setting": "A-427; first compound 0.8 µM", "value": 0.419}, {"measurement": "relative viability", "setting": "A-427; first compound 2.53 µM", "value": 0.393}, {"measurement": "relative viability", "setting": "NCI-H441; first compound 0.08 µM", "value": 0.657}, {"measurement": "relative viability", "setting": "NCI-H441; first compound 0.253 µM", "value": 0.794}, {"measurement": "relative viability", "setting": "NCI-H441; first compound 0.8 µM", "value": 0.697}, {"measurement": "relative viability", "setting": "NCI-H441; first compound 2.53 µM", "value": 0.568}, {"measurement": "relative viability", "setting": "NCI-H661; first compound 0.08 µM", "value": 0.701}, {"measurement": "relative viability", "setting": "NCI-H661; first compound 0.253 µM", "value": 0.719}, {"measurement": "relative viability", "setting": "NCI-H661; first compound 0.8 µM", "value": 0.696}, {"measurement": "relative viability", "setting": "NCI-H661; first compound 2.53 µM", "value": 0.583}, {"measurement": "relative viability", "setting": "LC-2-ad; first compound 0.08 µM", "value": 0.907}, {"measurement": "relative viability", "setting": "LC-2-ad; first compound 0.253 µM", "value": 0.815}, {"measurement": "relative viability", "setting": "LC-2-ad; first compound 0.8 µM", "value": 0.889}, {"measurement": "relative viability", "setting": "LC-2-ad; first compound 2.53 µM", "value": 0.864}, {"measurement": "relative viability", "setting": "NCI-H650; first compound 0.08 µM", "value": 0.52}, {"measurement": "relative viability", "setting": "NCI-H650; first compound 0.253 µM", "value": 0.565}, {"measurement": "relative viability", "setting": "NCI-H650; first compound 0.8 µM", "value": 0.493}, {"measurement": "relative viability", "setting": "NCI-H650; first compound 2.53 µM", "value": 0.37}, {"measurement": "relative viability", "setting": "H3255; first compound 0.08 µM", "value": 0.555}, {"measurement": "relative viability", "setting": "H3255; first compound 0.253 µM", "value": 0.584}, {"measurement": "relative viability", "setting": "H3255; first compound 0.8 µM", "value": 0.6}, {"measurement": "relative viability", "setting": "H3255; first compound 2.53 µM", "value": 0.384}, {"measurement": "relative viability", "setting": "NCI-H1651; first compound 0.08 µM", "value": 0.925}, {"measurement": "relative viability", "setting": "NCI-H1651; first compound 0.253 µM", "value": 0.711}, {"measurement": "relative viability", "setting": "NCI-H1651; first compound 0.8 µM", "value": 0.838}, {"measurement": "relative viability", "setting": "NCI-H1651; first compound 2.53 µM", "value": 0.69}, {"measurement": "relative viability", "setting": "NCI-H727; first compound 0.08 µM", "value": 0.696}, {"measurement": "relative viability", "setting": "NCI-H727; first compound 0.253 µM", "value": 0.495}, {"measurement": "relative viability", "setting": "NCI-H727; first compound 0.8 µM", "value": 0.744}, {"measurement": "relative viability", "setting": "NCI-H727; first compound 2.53 µM", "value": 0.514}, {"measurement": "relative viability", "setting": "BEN; first compound 0.08 µM", "value": 0.28}, {"measurement": "relative viability", "setting": "BEN; first compound 0.253 µM", "value": 0.303}, {"measurement": "relative viability", "setting": "BEN; first compound 0.8 µM", "value": 0.314}, {"measurement": "relative viability", "setting": "BEN; first compound 2.53 µM", "value": 0.309}]}]}
